According to the NIST ThermoML archive (doi:10.1016/j.jct.2011.01.006):
Values joined by “and” are separate entries in the source; they are usually repeats but may differ in a detail not shown here. Equal values may be shown once. Numbers after ± are expanded uncertainties.

Assays:
[1] = Crystal, Calculated from knudsen effusion weight loss
[2] = molar enthalpy of vaporization or sublimation; conditions: 298.15 K; Crystal; Ebulliometric method (Recirculating still)

CC(=O)c1ccc([N+](=O)[O-])cc1 [1-(4-nitrophenyl)ethanone]
[1]
Conditions	vapor or sublimation pressure
302.19 K	9.1e-05 ± 5e-06 kPa and 9e-05 ± 5e-06 kPa
304.15 K	0.000121 ± 6e-06 kPa and 0.000119 ± 6e-06 kPa and 0.000118 ± 6e-06 kPa
306.07 K	0.000149 ± 7e-06 kPa and 0.000156 ± 8e-06 kPa and 0.000151 ± 8e-06 kPa
306.19 K	0.000148 ± 7e-06 kPa and 0.000151 ± 8e-06 kPa and 0.000147 ± 7e-06 kPa
308.16 K	0.000192 ± 1e-05 kPa and 0.000193 ± 1e-05 kPa and 0.00019 ± 1e-05 kPa
310.07 K	0.000239 ± 1.2e-05 kPa and 0.000235 ± 1.2e-05 kPa and 0.000243 ± 1.2e-05 kPa
312.19 K	0.000329 ± 1.6e-05 kPa and 0.000306 ± 1.5e-05 kPa and 0.000304 ± 1.5e-05 kPa
314.16 K	0.000402 ± 2e-05 kPa and 0.000397 ± 2e-05 kPa and 0.000392 ± 2e-05 kPa
316.07 K	0.000494 ± 2.5e-05 kPa and 0.000502 ± 2.5e-05 kPa and 0.000503 ± 2.5e-05 kPa
318.18 K	0.000657 ± 3.3e-05 kPa and 0.000619 ± 3.1e-05 kPa and 0.000617 ± 3.1e-05 kPa
320.13 K	0.000795 ± 4e-05 kPa and 0.000792 ± 4e-05 kPa and 0.00078 ± 3.9e-05 kPa
322.06 K	0.00096 ± 4.8e-05 kPa and 0.000984 ± 4.9e-05 kPa and 0.000991 ± 5e-05 kPa

Conditions	molar enthalpy [kcal/mol]
[2]	23.2 ± 0.263

CC(=O)c1cccc([N+](=O)[O-])c1 [1-(3-nitrophenyl)ethanone]
[1]
Conditions	vapor or sublimation pressure
300.2 K	7e-05 ± 4e-06 kPa and 6.8e-05 ± 3e-06 kPa and 6.6e-05 ± 3e-06 kPa
302.18 K	8.8e-05 ± 4e-06 kPa and 8.9e-05 ± 4e-06 kPa
304.08 K	0.000113 ± 6e-06 kPa and 0.000115 ± 6e-06 kPa
306.2 K	0.000149 ± 7e-06 kPa and 0.000148 ± 7e-06 kPa and 0.000152 ± 8e-06 kPa
308.16 K	0.000192 ± 1e-05 kPa and 0.000191 ± 1e-05 kPa and 0.000189 ± 9e-06 kPa
310.08 K	0.000238 ± 1.2e-05 kPa and 0.000241 ± 1.2e-05 kPa and 0.000249 ± 1.2e-05 kPa
312.19 K	0.000321 ± 1.6e-05 kPa and 0.000305 ± 1.5e-05 kPa and 0.000302 ± 1.5e-05 kPa
314.15 K	0.000404 ± 2e-05 kPa and 0.000392 ± 2e-05 kPa and 0.000387 ± 1.9e-05 kPa
316.08 K	0.000499 ± 2.5e-05 kPa and 0.000491 ± 2.5e-05 kPa and 0.00049 ± 2.5e-05 kPa
318.18 K	0.000669 ± 3.4e-05 kPa and 0.000628 ± 3.1e-05 kPa and 0.000621 ± 3.1e-05 kPa
320.15 K	0.000817 ± 4.1e-05 kPa and 0.000801 ± 4e-05 kPa and 0.00079 ± 4e-05 kPa
322.08 K	0.001007 ± 0.0001 kPa and 0.001 ± 5e-05 kPa and 0.000997 ± 5e-05 kPa

Conditions	molar enthalpy [kcal/mol]
[2]	23.69 ± 0.215
